Results published in ChEMBL document CHEMBL5050847, “Targeting pleckstrin-2 for treating cancer” (2020).
Calls of active or inactive are those of the source. No cut-off for these calls is given here.

How the values were obtained:
[1] = test system: Mus musculus; assay: Protection against erythropoietin-induced myeloproliferation in wild type mouse assessed as reduction in vascular occlusions at 40 mg/kg, ip administered every 2 days for 8 days; format: functional, organism-based; conditions: time 2.0 day
[2] = test system: Jurkat; assay: Effect on Plek2 cell membrane localization in human Jurkat cells overexpressing GFP-Plek2 at 100 nM measured by real-time confocal imaging analysis; format: functional, cell-based
[3] = test system: Mus musculus; assay: Protection against Jak2 V617F-konckin induced myeloproliferation in mouse assessed as reduction in red blood cell count at 25 mg/kg, ip administered once every two days; format: functional, organism-based; conditions: time 2.0 day
[4] = Toxicity in Jak2 V617F-konckin induced myeloproliferation in mouse assessed as induction of side effects at 25 mg/kg, ip administered once every two days; format: organism-based; conditions: in vivo, 48 h, time 2 day
[5] = test system: Mus musculus; assay: Protection against Jak2 V617F-konckin induced myeloproliferation in mouse assessed as reduction in spleen size at 25 mg/kg, ip administered once every two days; format: functional, organism-based; conditions: time 2.0 day
[6] = test system: Mus musculus; assay: Protection against Jak2 V617F-konckin induced myeloproliferation in mouse assessed as normalization of white blood cell count at 25 mg/kg, ip administered once every two days; format: functional, organism-based; conditions: time 2.0 day
[7] = Inhibition of Plek2 in Ter119-negative mouse fetal liver erythroid progenitor cells overexpressing Plek2 cultured in erythropoietin containing medium assessed as decrease in cell proliferation measured by HTS assay; format: tissue-based
[8] = test system: Bone marrow cell; assay: Inhibition of Plek2 in mouse bone marrow lineage negative cells expressing wild-type Plek2 and treated with erythropoietin at 10 uM assessed as inhibition of Akt phosphorylation measured by western blot analysis; format: cell-based
[9] = test system: Mus musculus; assay: Protection against erythropoietin-induced myeloproliferation in wild type mouse assessed as reduction in erythrocytosis in spleen red pulp at 40 mg/kg, ip administered every 2 days for 8 days; format: functional, organism-based; conditions: time 2.0 day
[10] = test system: Mus musculus; assay: Protection against erythropoietin-induced myeloproliferation in wild type mouse assessed as reduction in leucocytosis at 40 mg/kg, ip administered every 2 days for 8 days; format: functional, organism-based; conditions: time 2.0 day
[11] = test system: Mus musculus; assay: Protection against erythropoietin-induced myeloproliferation in wild type mouse assessed as improvement in lung vasculature at 40 mg/kg, ip administered every 2 days for 8 days; format: functional, organism-based; conditions: time 2.0 day
[12] = test system: Mus musculus; assay: Protection against Jak2 V617F-konckin induced myeloproliferation in mouse assessed as reduction in extramedullary erythropoiesis at 25 mg/kg, ip administered once every two days; format: functional, organism-based; conditions: time 2.0 day
[13] = test system: Mus musculus; assay: Protection against Jak2 V617F-konckin induced myeloproliferation in mouse assessed as reduction in vascular occlusions in lung at 25 mg/kg, ip administered once every two days; format: functional, organism-based; conditions: time 2.0 day
[14] = test system: Mus musculus; assay: Protection against erythropoietin-induced myeloproliferation in wild type mouse assessed as reduction in splenomegaly at 40 mg/kg, ip administered every 2 days for 8 days; format: functional, organism-based; conditions: time 2.0 day
[15] = Toxicity in wild type mouse assessed as hematologic abnormalities at 40 mg/kg, ip administered every 2 days for 8 days; format: organism-based; conditions: in vivo, 48 h, time 2 day
[16] = Acute toxicity in mouse assessed as drug tolerability time at 40 mg/kg, ip administered as single dose; format: organism-based; conditions: in vivo
[17] = test system: Mus musculus; assay: Protection against erythropoietin-induced myeloproliferation in wild type mouse assessed as reduction in reticulocytosis at 40 mg/kg, ip administered every 2 days for 8 days; format: functional, organism-based; conditions: time 2.0 day
[18] = organism: Homo sapiens; assay: Binding affinity towards GST-tagged Plek2 (unknown origin) at 200 uM measured by isothermal calorimetry (ITC) assay relative to control
[19] = test system: COS-7; assay: Inhibition of Plek2 in African green monkey COS-7 cells overexpressing Plek2 at 10 uM assessed as decrease in lamellipodia formation; format: cell-based; conditions: Chlorocebus aethiops
[20] = Inhibition of Plek2 in Ter119-positive mouse fetal liver erythroid progenitor cells cultured in erythropoietin containing medium assessed as decrease in cell proliferation measured by HTS assay; format: tissue-based
[21] = Inhibition of Plek2 in Ter119-positive mouse fetal liver erythroid progenitor cells cultured in erythropoietin containing medium assessed as decrease in terminal enucleation of erythroblasts measured by HTS assay; format: tissue-based

With CN1CCN(C(c2ccc(Cl)cc2)C(O)C(=O)c2c[nH]c3ccccc23)CC1 (stereo unspecified) the Activity [1] was “Active”, the Activity [2] was “Active” and the Activity [3] was “Active”. For the same compound, the Activity [4] was “Non-Toxic”, the Activity [5] was “Active” and the Activity [6] was “Active”. For the same compound, the IC50 [7] was < 10 µM, the inhibition [8] was “Active” and the Activity [9] was “Active”. For the same compound, the Activity [10] was “Active”, the Activity [11] was “Active” and the Activity [12] was “Active”. For the same compound, the Activity [13] was “Active”, the Activity [14] was “Active” and the Activity [15] was “Non-Toxic”. For the same compound, the Time [16] was 2 days and the Activity [17] was “Active”.
For O=C(c1c[nH]c2ccccc12)C(O)C(c1ccccc1)N1CCN(CCO)CC1 (stereo unspecified), the Activity [18] was “Active”, the inhibition [19] was “Active” and the IC50 [20] was 40 µM. It also gave an IC50 [21] of 40 µM.
